Assay [1] has as its target T1, Endoribonuclease toxin MazF (Escherichia coli K-12, UniProt P0AE70).
T1 sequence (P0AE70 whole entry): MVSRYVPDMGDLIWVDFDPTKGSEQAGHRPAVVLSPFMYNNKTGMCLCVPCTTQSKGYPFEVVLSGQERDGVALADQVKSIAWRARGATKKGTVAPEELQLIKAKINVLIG
The assay can be described thus: activation of MazEF endoribonuclease cleavage – biochemical, fluorescence, single-stranded RNA substrate, uHTS hits, dose response (AID 588481). The assay is classed as functional.

Assay [2] addresses T1, Endoribonuclease toxin MazF. Nature of the assay: substrate-only fluorescence increase artefacts – biochemical, single-stranded RNase substrate, counter-screen for MazEF activator project, dose response (AID 588502). Format: functional.
The subject of the next assay is Vero. Nature of the assay: viability of Vero cells under compound – cytotoxicity control for flavivirus capping enzyme inhibitors (AID 588742). Format: functional. The settings on record: Chlorocebus sabaeus.
For another assay, the target named is Genome polyprotein (dengue virus type 2, UniProt P29990). Nature of the assay: flavivirus cap methylation enzyme inhibition – biochemical, confirmation dose response, primary screen (AID 588689). The assay is classed as functional.
For assay [3], the target named is T2, Apoptotic protease-activating factor 1 (Homo sapiens, UniProt O14727).
T2 sequence (O14727 whole entry): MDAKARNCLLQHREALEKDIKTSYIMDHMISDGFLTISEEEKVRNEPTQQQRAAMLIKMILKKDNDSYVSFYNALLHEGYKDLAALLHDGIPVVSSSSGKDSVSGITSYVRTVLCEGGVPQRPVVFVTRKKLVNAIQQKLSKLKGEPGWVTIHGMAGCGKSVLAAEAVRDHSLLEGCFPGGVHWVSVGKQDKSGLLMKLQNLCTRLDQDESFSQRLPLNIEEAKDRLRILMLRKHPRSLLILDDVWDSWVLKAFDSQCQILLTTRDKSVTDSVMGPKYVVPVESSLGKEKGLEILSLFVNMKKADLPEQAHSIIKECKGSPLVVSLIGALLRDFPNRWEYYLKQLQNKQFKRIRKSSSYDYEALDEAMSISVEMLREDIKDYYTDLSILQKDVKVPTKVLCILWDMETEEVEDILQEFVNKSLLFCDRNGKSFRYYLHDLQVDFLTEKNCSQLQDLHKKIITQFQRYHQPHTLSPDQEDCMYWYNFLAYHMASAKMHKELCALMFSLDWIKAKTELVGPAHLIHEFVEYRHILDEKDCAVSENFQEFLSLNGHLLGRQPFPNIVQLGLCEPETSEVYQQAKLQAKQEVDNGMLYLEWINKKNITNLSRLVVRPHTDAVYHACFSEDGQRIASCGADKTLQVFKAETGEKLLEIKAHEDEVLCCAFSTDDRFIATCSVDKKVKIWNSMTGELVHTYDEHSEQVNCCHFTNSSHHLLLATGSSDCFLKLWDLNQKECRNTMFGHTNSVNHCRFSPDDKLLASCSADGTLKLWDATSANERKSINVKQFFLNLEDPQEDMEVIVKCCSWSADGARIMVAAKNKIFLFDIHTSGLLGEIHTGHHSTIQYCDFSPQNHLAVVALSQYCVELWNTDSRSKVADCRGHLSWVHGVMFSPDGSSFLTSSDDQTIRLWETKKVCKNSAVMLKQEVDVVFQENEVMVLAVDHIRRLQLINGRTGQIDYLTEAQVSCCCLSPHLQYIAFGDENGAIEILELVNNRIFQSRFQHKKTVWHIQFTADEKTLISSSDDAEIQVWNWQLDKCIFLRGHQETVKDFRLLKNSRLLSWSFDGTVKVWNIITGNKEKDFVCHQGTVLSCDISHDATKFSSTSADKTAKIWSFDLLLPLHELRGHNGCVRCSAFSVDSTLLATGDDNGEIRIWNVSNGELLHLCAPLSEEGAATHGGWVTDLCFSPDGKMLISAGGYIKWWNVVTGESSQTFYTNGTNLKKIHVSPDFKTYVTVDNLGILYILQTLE
The assay is classed as functional.

The target in assay [4] is 26S proteasome non-ATPase regulatory subunit 14 (Homo sapiens, UniProt O00487). The assay can be described thus: inhibition of proteasome subunit RPN11 – biochemical, fluorescence polarization, uHTS hits, confirmation (AID 602368). Format: functional. On the technique in general: Fluorescence polarisation rises when a labelled molecule tumbles more slowly, as on binding a larger partner.

The target of assay [5] is 72 kDa type IV collagenase (Homo sapiens, UniProt P08253). Nature of the assay: Dose Response validation of uHTS RPN11 inhibitor hits using a MMP-2 Fluorescence assay. Format: functional.
Another assay addresses Prothrombin (Bos taurus, UniProt P00735). Nature of the assay: thrombin protease inhibitors – biochemical, fluorescence polarization, uHTS hits, dose response (AID 602369). The assay is classed as functional.
A further assay addresses Cytochrome P450 3A4 (Homo sapiens, UniProt P08684). The settings on record: Potency.
Assay [6] addresses T3, Corticotropin-releasing factor receptor 2/Corticotropin-releasing factor-binding protein (Homo sapiens, UniProt P24387+Q13324).
T3 sequence (Q13324 whole entry): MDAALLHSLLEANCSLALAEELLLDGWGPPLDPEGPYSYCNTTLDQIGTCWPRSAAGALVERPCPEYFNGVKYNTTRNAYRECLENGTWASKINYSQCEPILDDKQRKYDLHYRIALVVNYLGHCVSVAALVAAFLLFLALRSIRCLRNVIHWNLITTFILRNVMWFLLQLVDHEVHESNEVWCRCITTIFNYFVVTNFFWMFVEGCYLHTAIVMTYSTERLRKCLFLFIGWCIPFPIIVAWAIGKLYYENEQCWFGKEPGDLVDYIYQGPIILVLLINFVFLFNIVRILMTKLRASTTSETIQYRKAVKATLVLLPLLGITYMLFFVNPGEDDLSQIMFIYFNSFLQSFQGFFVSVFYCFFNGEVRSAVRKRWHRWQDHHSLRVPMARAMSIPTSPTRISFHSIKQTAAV
T3 sequence (P24387 whole entry): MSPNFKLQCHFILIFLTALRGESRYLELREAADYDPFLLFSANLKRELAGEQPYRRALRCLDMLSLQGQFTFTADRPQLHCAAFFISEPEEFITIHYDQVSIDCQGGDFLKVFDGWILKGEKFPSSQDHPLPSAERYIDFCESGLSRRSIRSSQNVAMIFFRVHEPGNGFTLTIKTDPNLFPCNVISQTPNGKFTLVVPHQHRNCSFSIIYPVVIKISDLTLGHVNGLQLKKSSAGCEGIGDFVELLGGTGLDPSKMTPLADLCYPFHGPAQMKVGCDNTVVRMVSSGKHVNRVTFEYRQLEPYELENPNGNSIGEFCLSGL
The assay can be described thus: activators of CRF receptor 2 with binding protein – uHTS hits, confirmation (AID 602473). The assay is classed as functional. The settings on record: read-out: EC50_Mean.

Assay [7] is described as follows: NIH-3T3 fibroblast cytotoxicity, dose response, cytotoxicity control, cell-based, fluorescence, Alamar Blue, secondary assay (AID 2327).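 Also: NIH-3T3 mouse fibroblasts cultured with fluconazole at 8 µg/mL.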 The assay is classed as functional. (In general: Alamar Blue is a resazurin reagent that responds to reducing activity.)
Assay [8] can be described thus: fluconazole-exposed Candida albicans growth modulators – fluorescence, retest, confirmation (AID 2467). The assay is classed as functional, cell-based.
A short description of assay [9]: THP-1 cell cytotoxicity, dose response, cytotoxicity control for non-replicating M. tuberculosis project (AID 489025). The assay is classed as functional.
Assay [10] can be described thus: Vero E6 cell cytotoxicity, dose response, cytotoxicity control for non-replicating M. tuberculosis project, secondary assay (AID 492998). The settings on record: Vero C1008. Format: functional, VeroE6.
Another assay concerns the target T4, Aminopeptidase N (Plasmodium falciparum FcB1/Columbia, UniProt O96935).
T4 sequence (O96935 whole entry): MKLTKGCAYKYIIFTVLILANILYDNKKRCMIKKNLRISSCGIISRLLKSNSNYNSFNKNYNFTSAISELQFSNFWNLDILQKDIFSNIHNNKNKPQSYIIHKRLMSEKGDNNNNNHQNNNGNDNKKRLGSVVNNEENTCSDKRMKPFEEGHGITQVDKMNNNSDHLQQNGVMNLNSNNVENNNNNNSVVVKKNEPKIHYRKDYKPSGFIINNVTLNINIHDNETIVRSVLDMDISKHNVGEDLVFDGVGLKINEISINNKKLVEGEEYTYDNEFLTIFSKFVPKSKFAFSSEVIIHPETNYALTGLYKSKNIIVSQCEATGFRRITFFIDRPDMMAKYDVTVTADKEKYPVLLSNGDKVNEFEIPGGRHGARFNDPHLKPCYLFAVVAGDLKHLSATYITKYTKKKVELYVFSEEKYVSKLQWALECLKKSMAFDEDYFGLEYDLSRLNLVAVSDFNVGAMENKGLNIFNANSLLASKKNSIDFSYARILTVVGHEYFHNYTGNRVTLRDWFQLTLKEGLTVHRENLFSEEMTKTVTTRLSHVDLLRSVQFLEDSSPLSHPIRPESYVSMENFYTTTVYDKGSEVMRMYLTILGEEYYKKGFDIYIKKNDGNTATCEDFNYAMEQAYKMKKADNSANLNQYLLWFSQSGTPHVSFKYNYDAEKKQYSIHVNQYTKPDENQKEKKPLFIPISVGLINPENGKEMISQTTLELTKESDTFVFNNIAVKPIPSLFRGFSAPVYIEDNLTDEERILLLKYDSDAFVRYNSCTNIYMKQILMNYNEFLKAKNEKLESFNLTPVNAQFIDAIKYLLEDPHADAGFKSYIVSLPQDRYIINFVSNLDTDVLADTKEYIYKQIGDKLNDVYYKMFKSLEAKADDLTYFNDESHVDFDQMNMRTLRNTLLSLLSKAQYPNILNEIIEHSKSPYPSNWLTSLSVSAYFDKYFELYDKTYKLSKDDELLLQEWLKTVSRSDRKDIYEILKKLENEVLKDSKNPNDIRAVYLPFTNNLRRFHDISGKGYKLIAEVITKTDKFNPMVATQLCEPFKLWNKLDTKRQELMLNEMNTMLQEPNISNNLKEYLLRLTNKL
Nature of the assay: malaria alanyl aminopeptidase activity blockers – biochemical, fluorogenic H-Leu-NHMec substrate, 1536-well (AID 1445). More on the design: species or system Plasmodium falciparum 3D7, 3D7.

The nature of assay [11]: Trypanosoma cruzi growth suppression in host cells – NIH3T3 host cells, beta-gal luminescence, confirmation (AID 2044).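 Also: intracellular parasites grown in NIH/3T3 mouse fibroblasts as host cells; luminescent beta-galactosidase reporter signal from transgenic T. cruzi replicating inside host cells; inhibitors lower the luminescence signal.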 Format: functional, cell-based.
A short description of assay [12]: NIH3T3 cell viability loss – ATP luminescence, mouse fibroblasts, counter-screen, dose response (AID 2010).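 Also: cells exposed to compound for about 90 hours before reading.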 Format: functional, cell-based. A general note: The purpose of a counterscreen is to sort out artefacts and off-target activity.
The nature of another assay: cells. The assay is classed as functional.
Assay [13] addresses Dual specificity tyrosine-phosphorylation-regulated kinase 1A (Rattus norvegicus, UniProt Q63470). Format: biochemical, Homo sapiens.

As a reminder, the CC50 is the concentration giving 50% cytotoxicity. The term IC50 denotes the midpoint of a concentration-inhibition curve. A word on the AC50: it is the concentration at which the activity in the assay is half-maximal.

Calls of active or inactive are those of the source.

Chain of Cytochrome P450 3A4 (P08684 whole entry): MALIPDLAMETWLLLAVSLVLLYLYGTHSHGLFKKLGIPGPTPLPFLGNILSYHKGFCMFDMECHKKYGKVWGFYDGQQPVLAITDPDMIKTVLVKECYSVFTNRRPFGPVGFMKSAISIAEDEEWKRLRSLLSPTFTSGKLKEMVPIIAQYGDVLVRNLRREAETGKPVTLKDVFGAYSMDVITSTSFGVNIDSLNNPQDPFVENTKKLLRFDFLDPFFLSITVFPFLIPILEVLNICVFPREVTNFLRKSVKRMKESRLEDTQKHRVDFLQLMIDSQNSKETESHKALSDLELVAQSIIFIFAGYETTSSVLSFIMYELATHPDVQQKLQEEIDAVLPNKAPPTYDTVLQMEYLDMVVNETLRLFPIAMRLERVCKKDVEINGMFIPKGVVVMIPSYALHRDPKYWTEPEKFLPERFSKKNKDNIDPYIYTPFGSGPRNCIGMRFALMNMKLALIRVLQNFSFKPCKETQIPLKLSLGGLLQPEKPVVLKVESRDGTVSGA
Chain of 26S proteasome non-ATPase regulatory subunit 14 (O00487 whole entry): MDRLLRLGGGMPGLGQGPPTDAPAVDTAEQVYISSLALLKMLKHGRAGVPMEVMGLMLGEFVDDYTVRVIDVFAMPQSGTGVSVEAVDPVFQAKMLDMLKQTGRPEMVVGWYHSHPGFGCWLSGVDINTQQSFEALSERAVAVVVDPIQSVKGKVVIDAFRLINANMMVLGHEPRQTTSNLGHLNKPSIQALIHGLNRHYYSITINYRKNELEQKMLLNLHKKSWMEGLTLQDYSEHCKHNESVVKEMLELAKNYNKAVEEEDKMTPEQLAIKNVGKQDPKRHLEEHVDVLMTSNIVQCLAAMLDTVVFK
Chain of 72 kDa type IV collagenase (P08253 whole entry): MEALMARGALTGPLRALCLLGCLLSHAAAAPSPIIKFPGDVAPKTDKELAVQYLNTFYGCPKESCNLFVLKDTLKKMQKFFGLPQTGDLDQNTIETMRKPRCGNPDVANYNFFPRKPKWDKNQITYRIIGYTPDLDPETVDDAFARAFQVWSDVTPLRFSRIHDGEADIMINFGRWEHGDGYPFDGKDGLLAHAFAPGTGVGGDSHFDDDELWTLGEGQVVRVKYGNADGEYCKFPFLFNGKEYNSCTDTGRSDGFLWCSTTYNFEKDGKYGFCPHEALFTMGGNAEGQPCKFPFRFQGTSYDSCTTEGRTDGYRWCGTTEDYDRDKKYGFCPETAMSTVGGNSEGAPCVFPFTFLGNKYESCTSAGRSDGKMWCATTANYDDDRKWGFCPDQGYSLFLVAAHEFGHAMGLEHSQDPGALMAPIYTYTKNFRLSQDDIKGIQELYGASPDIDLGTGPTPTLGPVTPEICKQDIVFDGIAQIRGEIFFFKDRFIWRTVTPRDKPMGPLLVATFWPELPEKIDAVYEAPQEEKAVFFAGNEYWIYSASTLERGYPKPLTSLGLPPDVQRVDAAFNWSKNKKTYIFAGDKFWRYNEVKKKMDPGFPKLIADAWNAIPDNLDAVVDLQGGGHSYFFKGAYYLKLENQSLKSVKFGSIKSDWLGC
Chain of Genome polyprotein (P29990 2492-3391 limits assumed): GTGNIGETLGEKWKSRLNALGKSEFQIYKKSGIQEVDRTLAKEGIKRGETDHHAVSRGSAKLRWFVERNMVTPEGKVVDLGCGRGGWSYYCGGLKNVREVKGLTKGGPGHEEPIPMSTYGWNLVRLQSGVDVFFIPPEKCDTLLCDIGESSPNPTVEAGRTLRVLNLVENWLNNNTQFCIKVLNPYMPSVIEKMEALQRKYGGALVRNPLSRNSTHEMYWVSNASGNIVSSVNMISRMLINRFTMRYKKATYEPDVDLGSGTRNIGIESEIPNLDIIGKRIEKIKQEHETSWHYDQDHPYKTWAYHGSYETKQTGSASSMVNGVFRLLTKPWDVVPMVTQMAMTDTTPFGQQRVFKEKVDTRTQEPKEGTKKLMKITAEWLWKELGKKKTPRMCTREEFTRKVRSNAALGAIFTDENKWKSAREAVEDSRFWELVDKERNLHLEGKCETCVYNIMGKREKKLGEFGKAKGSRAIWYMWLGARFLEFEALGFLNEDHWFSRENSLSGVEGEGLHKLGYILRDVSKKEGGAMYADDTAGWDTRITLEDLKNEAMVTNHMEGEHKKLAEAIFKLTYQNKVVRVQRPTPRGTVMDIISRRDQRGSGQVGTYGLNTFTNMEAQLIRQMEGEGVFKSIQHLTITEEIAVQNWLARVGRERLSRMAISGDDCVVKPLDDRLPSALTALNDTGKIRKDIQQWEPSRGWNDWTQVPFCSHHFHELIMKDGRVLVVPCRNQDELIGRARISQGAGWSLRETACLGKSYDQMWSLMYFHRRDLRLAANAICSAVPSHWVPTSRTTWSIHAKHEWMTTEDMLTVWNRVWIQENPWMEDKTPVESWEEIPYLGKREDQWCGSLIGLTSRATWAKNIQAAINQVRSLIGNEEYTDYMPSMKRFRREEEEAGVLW

Take `COc1ccc2c(C)cc(SCC(=O)Nc3cc(C(N)=O)cc(C(N)=O)c3)nc2c1`: the EC50 in assay [1] and in [2] was > 99 µM (inactive) throughout.
As to `Cc1ccc(S(=O)(=O)N2[C@@H](c3ccc(Br)cc3)C(C(=O)O)=CC[C@H]2c2ccc(C(C)C)cc2)cc1`, the CC50 with Vero is > 40 µM (active). Besides, on Genome polyprotein, the IC50 was 32.9 µM (active).
In the case of `Cc1ccccc1NC(=O)C1c2cccc[n+]2CC(=O)N1c1c(C)cccc1C` (stereo not given), the EC50 in [1] and in assay [2] was > 99 µM (inactive) each time.
Take `COc1ccc(-c2nc3nc(C)c(Cc4ccccc4)c(O)n3n2)cc1`: in assay [3], the IC50 was 30.6 µM (active).
As to `CCc1nc2oc3ccccc3c(=O)c2c(=O)n1-c1ccc(C)cc1`, the results for the half-maximal inhibitory concentration (IC50) (in [4]; in [5]; at Prothrombin) were 24.5 µM (active), > 100 µM (inactive) and 87.5 µM (active), respectively.
Turning to `COc1cc(C/C=C/c2ccccc2)c(OC)cc1O` [VIOLASTYRENE], the AC50 at Cytochrome P450 3A4 is 39.8 µM (inconclusive).
For `COc1ccc(/C=N/Nc2ccc([N+](=O)[O-])cc2S(=O)(=O)N2CCN(C)CC2)cc1`, the EC50 was > 99 µM (inactive) in assay [1], 8.43 µM (active) in assay [2] and 6.27 µM (active) in assay [6].
As for `CCNC(=S)NCC`, the half-maximal activity concentration (AC50) on Cytochrome P450 3A4 was 6.31 µM (inconclusive).
`O=C(Nc1ncc([N+](=O)[O-])s1)c1cccs1`: the EC50 was > 150 µM (inactive) in assay [7] and 0.069 µM (active) in assay [8]. Also, the 50% cytotoxic concentration (CC50) was 34.3 µM (active) in assay [9] and > 20 µM (active) in [10].
Regarding `O=C(NCCN1CCOCC1)c1cc2c(=O)n3ccccc3nc2n1Cc1ccccc1`, the half-inhibitory concentration (IC50) at Aminopeptidase N was 102 µM (active).
Still for that read-out and setting: under `Cc1cc(C(=O)NN=C(S)NCc2ccco2)nn1C` stands 57.7 µM (active).
Regarding `CCCCCCC#CC1C=CC(Oc2ccc(C=O)cc2)C(CO)O1` (stereo not given), on Cytochrome P450 3A4, the AC50 was 3.98 µM (inconclusive).
As for `CCOC(=O)OCC1OC(C#Cc2ccc(C)cc2C)C=CC1OC(=O)OCC` (stereo not given), the half-maximal activity concentration (AC50) on Cytochrome P450 3A4 was 3.98 µM (inconclusive).
Regarding `CN(C)c1oc(/C=C/c2ccccc2)nc1C#N`, the IC50 on Aminopeptidase N was 23.9 µM (active).
As for `Cc1cc(Br)c(Cl)cc1NC(=O)CN1C(=O)C2C3CC(c4ccccc4)C(C3)C2C1=O` (stereo not given), the EC50 is 2.59 µM (active) in assay [11] and 7.41 µM (active) in assay [12]. Further, the 50% cytotoxic concentration (CC50) with Vero was > 40 µM (active).
On to `COc1ccc(OC)c(NC(=O)C(=O)NNC(=O)C23CC4CC(CC(C4)C2)C3)c1`, for which the results for the CC50 in [9] and in assay [10] were > 40 µM (active) and > 20 µM (active), respectively. In “cells”, the half-maximal inhibitory concentration (IC50) is 8.62 µM (active).
On to `COc1ccc(/C=C2\SC(N3CCCCC3)=NC2=O)cc1`, for which the AC50 in assay [13] is 0.308 µM (active).
In the case of `O=C(Nc1cccc([N+](=O)[O-])c1)Nc1ccc2c(c1)CCC2`, the EC50 in [11] is 3.27 µM (active); in [12], > 60 µM (not active); in assay [1] it was > 99 µM (inactive); in assay [2], > 99 µM (inactive).

(Values after ChEMBL document CHEMBL1201862, “PubChem BioAssay data set” (2004).)
